Target: MCH receptor (Homo sapiens, UniProt Q99705)
Assay: High throughput functional screening FLIPR/FDSS6000: inhibition of MCH-evoked intracellular Ca2+ changes
Assay type: cell-based
Details: class by percent of control at 10^-7 M or IC50
How it was run: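 Constitutively active non-endogenous MCH-R cells; Fluo4-AM 4 μM, 2.5 mM probenecid, 1 hr, 37° C; cpd 3 min, 37° C; MCH 50 nM (antagonist mode); kinetic Ca2+ read Ex488/Em530, 290 s.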

Q: How did the class turn out when CN(C)c1nc(N[C@H]2CC[C@@H](CNC(=O)Nc3cccc(F)c3)CC2)nc2ccccc12 [compound 438, N-[(cis-4-{[4-(dimethylamino)quinazolin-2-yl]amino}cyclohexyl)methyl]-N′-(3-fluorophenyl)urea] was run?
A: The class was 2 (Class 2: The value of percent of control at 10^−7 M was from 40% to 60% or the value of IC50 was from 50 nM to 200 nM.).

Q: How did the class turn out when CN(C)c1nc(N[C@H]2CC[C@@H](CNC(=O)Nc3ccccc3F)CC2)nc2ccccc12 [compound 439, N-[(cis-4-{[4-(dimethylamino)quinazolin-2-yl]amino}cyclohexyl)methyl]-N′-(2-fluorophenyl)urea] was run?
A: Its class is 2 (Class 2: The value of percent of control at 10^−7 M was from 40% to 60% or the value of IC50 was from 50 nM to 200 nM.).

Q: CC(C)c1ccc(NC(=O)NC[C@H]2CC[C@@H](Nc3nc(N(C)C)c4ccccc4n3)CC2)cc1 [compound 440] was tested. Which class did it give?
A: The class was 3 (Class 3: The value of percent of control at 10^−7 M was more than 60% or the value of IC50 was more than 200 nM.).

Q: Which class does the source give for C=C(C)c1cccc(C(C)(C)NC(=O)NC[C@H]2CC[C@@H](Nc3nc(N(C)C)c4ccccc4n3)CC2)c1 [compound 441] here?
A: The class was 2 (Class 2: The value of percent of control at 10^−7 M was from 40% to 60% or the value of IC50 was from 50 nM to 200 nM.).

Q: Which class does the source give for CC(C)NC(=O)NC[C@H]1CC[C@@H](Nc2nc(N(C)C)c3ccccc3n2)CC1 [compound 443] here?
A: Its class is 3 (Class 3: The value of percent of control at 10^−7 M was more than 60% or the value of IC50 was more than 200 nM.).

Q: How did the class turn out when COc1ccc(NC(=O)NC[C@H]2CC[C@@H](Nc3nc(N(C)C)c4ccccc4n3)CC2)cc1 [compound 444, N-[(cis-4-{[4-(dimethylamino)quinazolin-2-yl]amino}cyclohexyl)methyl]-N′-(4-methoxyphenyl)urea] was run?
A: The class was 2 (Class 2: The value of percent of control at 10^−7 M was from 40% to 60% or the value of IC50 was from 50 nM to 200 nM.).

Q: How did the class turn out when Cc1ccc(NC(=O)NC[C@H]2CC[C@@H](Nc3nc(N(C)C)c4ccccc4n3)CC2)c([N+](=O)[O-])c1 [compound 445, N-[(cis-4-{[4-(dimethylamino)quinazolin-2-yl]amino}cyclohexyl)methyl]-N′-(4-methyl-2-nitrophenyl)urea] was run?
A: Its class is 2 (Class 2: The value of percent of control at 10^−7 M was from 40% to 60% or the value of IC50 was from 50 nM to 200 nM.).

Q: Which class does the source give for COc1ccccc1NC(=O)NC[C@H]1CC[C@@H](Nc2nc(N(C)C)c3ccccc3n2)CC1 [compound 446, N-[(cis-4-{[4-(dimethylamino)quinazolin-2-yl]amino}cyclohexyl)methyl]-N′-(2-methoxyphenyl)urea] here?
A: Its class is 2 (Class 2: The value of percent of control at 10^−7 M was from 40% to 60% or the value of IC50 was from 50 nM to 200 nM.).

Q: For COc1cccc(NC(=O)NC[C@H]2CC[C@@H](Nc3nc(N(C)C)c4ccccc4n3)CC2)c1 [compound 447, N-[(cis-4-{[4-(dimethylamino)quinazolin-2-yl]amino}cyclohexyl)methyl]-N′-(3-methoxyphenyl)urea], which class is on record?
A: Its class is 2 (Class 2: The value of percent of control at 10^−7 M was from 40% to 60% or the value of IC50 was from 50 nM to 200 nM.).

Q: With CSc1ccc(NC(=O)NC[C@H]2CC[C@@H](Nc3nc(N(C)C)c4ccccc4n3)CC2)cc1 [compound 448, N-[(cis-4-{[4-(dimethylamino)quinazolin-2-yl]amino}cyclohexyl)methyl]-N′-[4-(methylthio)phenyl]urea] as the compound, how does the class read?
A: Its class is 1 (Class 1: The value of percent of control at 10^−7 M was less than 40% or the value of IC50 was less than 50 nM.).

Q: COc1ccc(CNC(=O)NC[C@H]2CC[C@@H](Nc3nc(N(C)C)c4ccccc4n3)CC2)cc1 [compound 449] was tested. Which class did it give?
A: Its class is 3 (Class 3: The value of percent of control at 10^−7 M was more than 60% or the value of IC50 was more than 200 nM.).

Q: With CN(C)c1nc(N[C@H]2CC[C@@H](CNC(=O)Nc3cccc4ccccc34)CC2)nc2ccccc12 [compound 450, N-[(cis-4-{[4-(dimethylamino)quinazolin-2-yl]amino}cyclohexyl)methyl]-N′-1-naphthylurea] as the compound, how does the class read?
A: The class was 2 (Class 2: The value of percent of control at 10^−7 M was from 40% to 60% or the value of IC50 was from 50 nM to 200 nM.).

Q: How did the class turn out when CN(C)c1nc(N[C@H]2CC[C@@H](CNC(=O)NC3C[C@H]3c3ccccc3)CC2)nc2ccccc12 (some centres unmarked) [compound 451] was run?
A: Its class is 3 (Class 3: The value of percent of control at 10^−7 M was more than 60% or the value of IC50 was more than 200 nM.).

Q: Which class does the source give for CN(C)c1nc(N[C@H]2CC[C@@H](CNC(=O)Nc3ccccc3)CC2)nc2ccccc12 [compound 452, N-[(cis-4-{[4-(dimethylamino)quinazolin-2-yl]amino}cyclohexyl)methyl]-N′-phenylurea] here?
A: Its class is 1 (Class 1: The value of percent of control at 10^−7 M was less than 40% or the value of IC50 was less than 50 nM.).

Q: For CN(C)c1nc(N[C@H]2CC[C@@H](CNC(=O)Nc3ccc(Oc4ccccc4)cc3)CC2)nc2ccccc12 [compound 453], which class is on record?
A: Its class is 3 (Class 3: The value of percent of control at 10^−7 M was more than 60% or the value of IC50 was more than 200 nM.).

Q: CCCCCNC(=O)NC[C@H]1CC[C@@H](Nc2nc(N(C)C)c3ccccc3n2)CC1 [compound 454, N-[(cis-4-{[4-(dimethylamino)quinazolin-2-yl]amino}cyclohexyl)methyl]-N′-pentylurea] was tested. Which class did it give?
A: The class was 2 (Class 2: The value of percent of control at 10^−7 M was from 40% to 60% or the value of IC50 was from 50 nM to 200 nM.).

Q: How did the class turn out when CN(C)c1nc(N[C@H]2CC[C@@H](CNC(=O)Nc3ccccc3C(F)(F)F)CC2)nc2ccccc12 [compound 455, N-[(cis-4-{[4-(dimethylamino)quinazolin-2-yl]amino}cyclohexyl)methyl]-N′-[2-(trifluoromethyl)phenyl]urea] was run?
A: Its class is 1 (Class 1: The value of percent of control at 10^−7 M was less than 40% or the value of IC50 was less than 50 nM.).

Q: With CN(C)c1nc(N[C@H]2CC[C@@H](CNC(=O)Nc3cccc(C(F)(F)F)c3)CC2)nc2ccccc12 [compound 456] as the compound, how does the class read?
A: Its class is 3 (Class 3: The value of percent of control at 10^−7 M was more than 60% or the value of IC50 was more than 200 nM.).

Q: How did the class turn out when Cc1ccc(NC(=O)NC[C@H]2CC[C@@H](Nc3nc(N(C)C)c4ccccc4n3)CC2)cc1 [compound 457, N-[(cis-4-{[4-(dimethylamino)quinazolin-2-yl]amino}cyclohexyl)methyl]-N′-(4-methylphenyl)urea] was run?
A: Its class is 1 (Class 1: The value of percent of control at 10^−7 M was less than 40% or the value of IC50 was less than 50 nM.).

Q: Which class does the source give for Cc1cc(C)c(NC(=O)NC[C@H]2CC[C@@H](Nc3nc(N(C)C)c4ccccc4n3)CC2)c(C)c1 [compound 458, N-[(cis-4-{[4-(dimethylamino)quinazolin-2-yl]amino}cyclohexyl)methyl]-N′-mesitylurea] here?
A: The class was 1 (Class 1: The value of percent of control at 10^−7 M was less than 40% or the value of IC50 was less than 50 nM.).

Q: How did the class turn out when Cc1cccc(NC(=O)NC[C@H]2CC[C@@H](Nc3nc(N(C)C)c4ccccc4n3)CC2)c1 [compound 459, N-[(cis-4-{[4-(dimethylamino)quinazolin-2-yl]amino}cyclohexyl)methyl]-N′-(3-methylphenyl)urea] was run?
A: Its class is 2 (Class 2: The value of percent of control at 10^−7 M was from 40% to 60% or the value of IC50 was from 50 nM to 200 nM.).

Q: How did the class turn out when Cc1ccccc1NC(=O)NC[C@H]1CC[C@@H](Nc2nc(N(C)C)c3ccccc3n2)CC1 [compound 460, N-[(cis-4-{[4-(dimethylamino)quinazolin-2-yl]amino}cyclohexyl)methyl]-N′-(2-methylphenyl)urea] was run?
A: Its class is 1 (Class 1: The value of percent of control at 10^−7 M was less than 40% or the value of IC50 was less than 50 nM.).

Q: How did the class turn out when CN(C)c1nc(N[C@H]2CC[C@@H](CNC(=O)Nc3c(Cl)cc(Cl)cc3Cl)CC2)nc2ccccc12 [compound 463, N-[(cis-4-{[4-(dimethylamino)quinazolin-2-yl]amino}cyclohexyl)methyl]-N′-(2,4,6-trichlorophenyl)urea] was run?
A: Its class is 1 (Class 1: The value of percent of control at 10^−7 M was less than 40% or the value of IC50 was less than 50 nM.).

Q: With Cc1ccc(NC(=O)NC[C@H]2CC[C@@H](Nc3nc(N(C)C)c4ccccc4n3)CC2)cc1Cl [compound 464] as the compound, how does the class read?
A: Its class is 3 (Class 3: The value of percent of control at 10^−7 M was more than 60% or the value of IC50 was more than 200 nM.).

Q: How did the class turn out when CC(NC(=O)NCC1CCC(Nc2nc(N(C)C)c3ccccc3n2)CC1)c1ccccc1 (centres unmarked) [compound 466, 1-[4-(4-Dimethylamino-quinazolin-2-ylamino)-cyclohexylmethyl]-3-(1-phenyl-ethyl)-urea] was run?
A: The class was 2 (Class 2: The value of percent of control at 10^−7 M was from 40% to 60% or the value of IC50 was from 50 nM to 200 nM.).

Q: For CC(NC(=O)NCC1CCC(Nc2nc(N(C)C)c3ccccc3n2)CC1)c1cccc2ccccc12 (centres unmarked) [compound 467], which class is on record?
A: The class was 2 (Class 2: The value of percent of control at 10^−7 M was from 40% to 60% or the value of IC50 was from 50 nM to 200 nM.).

Q: Which class does the source give for CC(C)c1cccc(C(C)C)c1NC(=O)NC[C@H]1CC[C@@H](Nc2nc(N(C)C)c3ccccc3n2)CC1 [compound 468] here?
A: The class was 1 (Class 1: The value of percent of control at 10^−7 M was less than 40% or the value of IC50 was less than 50 nM.).

Q: With CN(C)c1nc(N[C@H]2CC[C@@H](CNC(=O)Nc3ccccc3OC(F)F)CC2)nc2ccccc12 [compound 469, N-[2-(difluoromethoxy)phenyl]-N′-[(cis-4-{[4-(dimethylamino)quinazolin-2-yl]amino}cyclohexyl)methyl]urea] as the compound, how does the class read?
A: Its class is 2 (Class 2: The value of percent of control at 10^−7 M was from 40% to 60% or the value of IC50 was from 50 nM to 200 nM.).

Q: Which class does the source give for COC(=O)c1ccccc1NC(=O)NC[C@H]1CC[C@@H](Nc2nc(N(C)C)c3ccccc3n2)CC1 [compound 470, methyl 2-[({[(cis-4-{[4-(dimethylamino)quinazoalin-2-yl]amino}cyclohexyl)methyl]amino}carbonyl)amino]benzoate] here?
A: The class was 3 (Class 3: The value of percent of control at 10^−7 M was more than 60% or the value of IC50 was more than 200 nM.).

Reference: US20070010671A1, “Novel quinazoline derivatives and methods of treatment related to the use thereof” (priority 2003, published 2007)
